Source: US10023592B2, “Bromodomain inhibitors” (Celgene Quanticel Research, Inc., priority 2013, dated 2018)

Legend:
[1] = molecular target: BRD4(BD1) (Homo sapiens (Human), UniProt O60885); experiment: In vitro enzyme inhibition assay (BRD4 AlphaScreen); format: binding; settings: in vitro enzyme inhibition assay
How it was run: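 His-tagged BRD4 tested by AlphaScreen for binding of biotinylated H4K5/8/12/16-tetraacetyl peptide. After 20 min at room temperature, streptavidin donor and nickel chelate acceptor beads added (5 μg/mL final each). IC50 determined.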

[2] = tested on: HL-60, human proleukemia cells; experiment: Cell-MTS proliferation assay, HL-60; format: cell-based; settings: Homo sapiens; Cell-MTS proliferation, HL-60 cells, 168 hr
How it was run: (§1)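 Seed: Raji 15,000, HL-60 5,000, NCI-H460 3,000 cells/96-well. +24 hr: 11-pt compound dilution, 100 μM–2.0 nM final. 7 d culture, MTS reagent, read OD490; IC50 vs DMSO, background subtracted.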

[3] = tested on: Raji, human Burkitts lymphoma cells; experiment: Cell-MTS proliferation assay, Raji; format: cell-based; settings: Homo sapiens; Cell-MTS proliferation, Raji cells, 168 hr
How it was run: as §1

[4] = tested on: NCI-H460, human non-small cell lung cancer cells; experiment: Cell-MTS proliferation assay, NCI-H460; format: cell-based; settings: Homo sapiens; Cell-MTS proliferation, NCI-H460 cells, 168 hr
How it was run: as §1

Row | IC50 [1] [nM] | IC50 [2] [nM] | IC50 [3] [nM] | IC50 [4] [nM] | Compound
1 | < 500 | < 500 | < 500 | > 5000 | Cc1cc(-c2cc(CS(C)(=O)=O)ccc2OCC(F)(F)F)cn(C)c1=O [Example 427, 1,3-dimethyl-5-[5-(methylsulfonylmethyl)-2-(2,2,2-trifluoroethoxy)phenyl]pyridin-2-one]
2 | < 500 | 500 to 5000 | 500 to 5000 | > 5000 | CCn1cc(-c2cc(S(C)(=O)=O)ccc2NCC2CC2)cc(C)c1=O [Example 428, 5-[2-(cyclopropylmethylamino)-5-methylsulfonylphenyl]-1-ethyl-3-methylpyridin-2-one]
3 | < 500 | < 500 | < 500 | > 5000 | CCn1cc(-c2cc(CS(C)(=O)=O)ccc2Oc2ccc(F)cc2F)cc(C)c1=O [Example 429, 5-[2-(2,4-difluorophenoxy)-5-(methylsulfonylmethyl)phenyl]-1-ethyl-3-methylpyridin-2-one]
4 | < 500 | < 500 | < 500 | > 5000 | CCS(=O)(=O)Nc1ccc(O[C@H]2CC[C@H](O)CC2)c(-c2cc(C)c(=O)n(C)c2)c1 [Example 430, N-[3-(1,5-dimethyl-6-oxopyridin-3-yl)-4-(trans-4-hydroxycyclohexyl)oxyphenyl]ethanesulfonamide]
5 | < 500 | < 500 | 500 to 5000 | > 5000 | CCS(=O)(=O)Nc1ccc(O[C@H]2CC[C@@H](O)CC2)c(-c2cc(C)c(=O)n(C)c2)c1 [Example 431, N-[3-(1,5-dimethyl-6-oxopyridin-3-yl)-4-(cis-4-hydroxycyclohexyl)oxyphenyl]ethanesulfonamide]
6 | < 500 | < 500 | < 500 | > 5000 | Cc1cc(-c2cc(NS(C)(=O)=O)ccc2O[C@H]2CC[C@H](O)CC2)cn(C)c1=O [Example 433, N-[3-(1,5-dimethyl-6-oxopyridin-3-yl)-4-(trans-4-hydroxycyclohexyl)oxyphenyl]methanesulfonamide]
7 | < 500 | 500 to 5000 | 500 to 5000 | > 5000 | Cc1cc(-c2cc(NS(C)(=O)=O)ccc2O[C@H]2CC[C@@H](O)CC2)cn(C)c1=O [Example 434, N-[3-(1,5-dimethyl-6-oxopyridin-3-yl)-4-(cis-4-hydroxycyclohexyl)oxyphenyl] methanesulfonamide]
8 | < 500 | < 500 | 500 to 5000 | > 5000 | Cc1cc(-c2cc(S(C)(=O)=O)ccc2NC2CCOCC2)cn(C)c1=O [Example 436, 1,3-dimethyl-5-[5-methylsulfonyl-2-(oxan-4-ylamino)phenyl]pyridin-2-one]
9 | < 500 | < 500 | < 500 | > 5000 | Cn1cc(-c2cc(CS(C)(=O)=O)ccc2Oc2ccc(F)cc2F)cc(F)c1=O [Example 437, 5-[2-(2,4-difluorophenoxy)-5-(methylsulfonylmethyl)phenyl]-3-fluoro-1-methylpyridin-2-one]
10 | < 500 | < 500 | < 500 | > 5000 | CN(C)c1cc(-c2cc(S(C)(=O)=O)ccc2NCC2CC2)cn(C)c1=O [Example 438, 5-[2-(cyclopropylmethylamino)-5-methylsulfonylphenyl]-3-(dimethylamino)-1-methylpyridin-2-one]
11 | < 500 | < 500 | < 500 | > 5000 | Cc1cc(-c2cc(NS(C)(=O)=O)ccc2OC2CCOCC2)cn(C)c1=O [Example 439, N-[3-(1,5-dimethyl-6-oxopyridin-3-yl)-4-(oxan-4-yloxy)phenyl] methanesulfonamide]
12 | < 500 | < 500 | < 500 | > 5000 | CCS(=O)(=O)c1ccc(NCC2CC2)c(-c2cc(N(C)C)c(=O)n(C)c2)c1 [Example 440, 5-[2-(cyclopropylmethylamino)-5-ethylsulfonylphenyl]-3-(dimethylamino)-1-methylpyridin-2-one]
13 | < 500 | < 500 | < 500 | > 5000 | CCS(=O)(=O)Nc1ccc(OC2CCOCC2)c(-c2cc(C)c(=O)n(C)c2)c1 [Example 441, N-[3-(1,5-dimethyl-6-oxopyridin-3-yl)-4-(oxan-4-yloxy)phenyl]ethanesulfonamide]
14 | < 500 | < 500 | < 500 | > 5000 | COc1cc(-c2cc(NS(C)(=O)=O)ccc2Oc2ccc(F)cc2F)cn(C)c1=O [Example 442, N-[4-(2,4-difluorophenoxy)-3-(5-methoxy-1-methyl-6-oxopyridin-3-yl)phenyl]methanesulfonamide]
15 | < 500 | < 500 | < 500 | > 5000 | CCS(=O)(=O)Nc1ccc(Oc2ccc(F)cc2F)c(-c2cc(OC)c(=O)n(C)c2)c1 [Example 443, N-[4-(2,4-difluorophenoxy)-3-(5-methoxy-1-methyl-6-oxopyridin-3-yl)phenyl]ethanesulfonamide]
16 | < 500 | < 500 | < 500 | > 5000 | Cc1cc(-c2cc(NS(C)(=O)=O)ccc2OC2CCOC2)cn(C)c1=O (centres unmarked) [Example 444, N-[3-(1,5-dimethyl-6-oxopyridin-3-yl)-4-(oxolan-3-yloxy)phenyl] methanesulfonamide]
17 | < 500 | < 500 | < 500 | > 5000 | CCS(=O)(=O)Nc1ccc(OC2CCOC2)c(-c2cc(C)c(=O)n(C)c2)c1 (centres unmarked) [Example 445, N-[3-(1,5-dimethyl-6-oxopyridin-3-yl)-4-(oxolan-3-yloxy)phenyl]ethanesulfonamide]
18 | < 500 | < 500 | < 500 | > 5000 | Cc1cc(-c2cc(NS(C)(=O)=O)ccc2OC2CCCOC2)cn(C)c1=O (centres unmarked) [Example 446, N-[3-(1,5-dimethyl-6-oxopyridin-3-yl)-4-(oxan-3-yloxy)phenyl] methanesulfonamide]
19 | < 500 | < 500 | < 500 | > 5000 | Cc1cc(-c2cc(NS(C)(=O)=O)ccc2OC2CCC(F)(F)CC2)cn(C)c1=O [Example 447, N-[4-(4,4-difluorocyclohexyl)oxy-3-(1,5-dimethyl-6-oxopyridin-3-yl)phenyl]methanesulfonamide]
20 | < 500 | < 500 | < 500 | > 5000 | CCS(=O)(=O)Nc1ccc(OC2CCCOC2)c(-c2cc(C)c(=O)n(C)c2)c1 (centres unmarked) [Example 448, N-[3-(1,5-dimethyl-6-oxopyridin-3-yl)-4-(oxan-3-yloxy)phenyl]ethanesulfonamide]
21 | < 500 | < 500 | < 500 | > 5000 | CCS(=O)(=O)Nc1ccc(OC2CCC(F)(F)CC2)c(-c2cc(C)c(=O)n(C)c2)c1 [Example 449, N-[4-(4,4-difluorocyclohexyl)oxy-3-(1,5-dimethyl-6-oxopyridin-3-yl)phenyl] ethanesulfonamide]
22 | < 500 | < 500 | < 500 | > 5000 | CCS(=O)(=O)c1ccc(OCC2CC2)c(-c2cc(C)c(=O)n(C)c2)c1 [Example 450, 5-[2-(cyclopropylmethoxy)-5-ethylsulfonylphenyl]-1,3-dimethylpyridin-2-one]
23 | > 5000 | > 5000 | > 5000 | > 5000 | Cn1cc(-c2cc(S(N)(=O)=O)ccc2NCC2CC2)ccc1=O [Example 453, 4-(cyclopropylmethylamino)-3-(1-methyl-6-oxopyridin-3-yl)benzenesulfonamide]
24 | < 500 | < 500 | < 500 | > 5000 | Cc1cc(=O)n(C)cc1-c1cc(CS(C)(=O)=O)ccc1Oc1ccc(F)cc1F [Example 454, 5-[2-(2,4-difluorophenoxy)-5-(methylsulfonylmethyl)phenyl]-1,4-dimethylpyridin-2-one]
25 | < 500 | < 500 | < 500 | > 5000 | Cc1cc(-c2cc(CS(C)(=O)=O)ccc2Oc2ccc(F)cc2F)cn(C)c1=O [Example 455, 5-[2-(2,4-difluorophenoxy)-5-(methylsulfonylmethyl)phenyl]-1,3-dimethylpyridin-2-one]
26 | < 500 | < 500 | < 500 | > 5000 | Cc1cc(-c2cc(S(C)(=O)=O)ccc2OCC2CCC2)cn(C)c1=O [Example 459, 5-[2-(cyclobutylmethoxy)-5-methylsulfonylphenyl]-1,3-dimethylpyridin-2-one]
27 | < 500 | < 500 | < 500 | > 5000 | Cc1cc(-c2cc(S(C)(=O)=O)ccc2NCC2CC2)cn(C)c1=O [Example 462, 5-[2-(cyclopropylmethylamino)-5-methylsulfonylphenyl]-1,3-dimethylpyridin-2-one]
28 | < 500 | < 500 | < 500 | > 5000 | CN(C)c1cc(-c2cc(NS(C)(=O)=O)ccc2Oc2ccc(F)cc2F)cn(C)c1=O [Example 463, N-[4-(2,4-difluorophenoxy)-3-[5-(dimethylamino)-1-methyl-6-oxopyridin-3-yl]phenyl]methanesulfonamide]
29 | < 500 | < 500 | < 500 | > 5000 | CCS(=O)(=O)Nc1ccc(Oc2ccc(F)cc2F)c(-c2cc(N(C)C)c(=O)n(C)c2)c1 [Example 464, N-[4-(2,4-difluorophenoxy)-3-[5-(dimethylamino)-1-methyl-6-oxopyridin-3-yl]phenyl]ethanesulfonamide]
